Measurements as given in ChEMBL document CHEMBL3390839, “Triazolopyrimidinones as -secretase modulators: structureactivity relationship, modulator profile, and in vivo profiling” (Medchemcomm, 2013).
Values after ≈ are worked out from the molar mass of the structure shown. Active and inactive are the calls of the source. No cut-off for these calls is given here.

Columns and labels:
[1] = Solubility of the compound; format: physicochemical
[2] = target: Gamma-secretase; experiment: Inhibition of human gamma-secretase in HEK-APPswe cells assessed as amyloid beta42 production by electrochemiluminescence assay; format: cell-based
[3] = target: Voltage-gated inwardly rectifying potassium channel KCNH2 (Homo sapiens, UniProt Q12809); experiment: Inhibition of human ERG
Sequence of Voltage-gated inwardly rectifying potassium channel KCNH2 (Q12809 whole entry): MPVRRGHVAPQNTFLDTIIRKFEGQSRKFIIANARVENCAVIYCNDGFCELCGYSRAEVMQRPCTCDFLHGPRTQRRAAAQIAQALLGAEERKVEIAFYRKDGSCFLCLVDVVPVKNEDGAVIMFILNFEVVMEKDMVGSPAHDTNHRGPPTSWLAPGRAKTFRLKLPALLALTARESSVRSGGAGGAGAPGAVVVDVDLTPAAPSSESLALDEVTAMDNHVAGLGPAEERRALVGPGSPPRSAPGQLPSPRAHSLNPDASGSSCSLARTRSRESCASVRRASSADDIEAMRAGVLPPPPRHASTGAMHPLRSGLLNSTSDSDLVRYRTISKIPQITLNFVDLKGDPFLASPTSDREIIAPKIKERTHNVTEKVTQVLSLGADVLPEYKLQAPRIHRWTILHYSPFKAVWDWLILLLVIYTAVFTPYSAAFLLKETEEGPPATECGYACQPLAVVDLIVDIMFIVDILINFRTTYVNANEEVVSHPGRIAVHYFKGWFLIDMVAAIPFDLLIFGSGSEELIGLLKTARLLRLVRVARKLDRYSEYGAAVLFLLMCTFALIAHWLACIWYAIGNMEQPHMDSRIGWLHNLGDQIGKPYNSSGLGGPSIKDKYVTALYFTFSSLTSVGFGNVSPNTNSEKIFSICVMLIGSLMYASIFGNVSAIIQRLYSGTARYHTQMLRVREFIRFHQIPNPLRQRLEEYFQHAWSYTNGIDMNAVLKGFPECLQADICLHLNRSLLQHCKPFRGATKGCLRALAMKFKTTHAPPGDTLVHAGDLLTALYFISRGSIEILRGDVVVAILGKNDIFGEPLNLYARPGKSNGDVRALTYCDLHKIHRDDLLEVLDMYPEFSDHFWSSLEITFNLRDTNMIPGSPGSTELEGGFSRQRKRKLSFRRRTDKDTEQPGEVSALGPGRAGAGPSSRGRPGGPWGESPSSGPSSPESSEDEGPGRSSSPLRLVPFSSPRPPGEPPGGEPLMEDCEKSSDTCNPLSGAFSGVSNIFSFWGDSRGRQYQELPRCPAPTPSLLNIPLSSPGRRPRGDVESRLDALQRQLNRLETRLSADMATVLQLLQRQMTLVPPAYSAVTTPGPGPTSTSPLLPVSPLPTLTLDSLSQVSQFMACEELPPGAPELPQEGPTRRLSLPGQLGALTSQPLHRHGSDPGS

[4] = tested on: Liver microsome; experiment: Intrinsic clearance in human liver microsomes measured pre ug of protein; format: ADME
[5] = Inhibition of gamma-secretase in mouse primary cortical neurons cells assessed as amyloid beta42 production after 5 days by ELISA; format: cell-based, Cerebral cortex neuron; conditions: for IC50: Mus musculus, Cerebral cortex neuron, 120 h; for pIC50: cerebral cortex neuron
[6] = Ratio of drug level in brain to plasma in C57BL/6 mouse; format: ADME, organism-based; conditions: brain and plasma, read-out: BPR
[7] = Permeability across apical to basolateral side in human Caco2 cells; format: ADME, cell-based; conditions: for Papp A→B: Caco-2, read-out: permeability; for permeability: Caco-2
[8] = Permeability across basolateral to apical side in human Caco2 cells; format: ADME, cell-based; conditions: for Papp B→A: Caco-2, read-out: permeability; for permeability: Caco-2
[9] = target: T1, Gamma-secretase (Homo sapiens) (UniProt Q96BI3+Q9NZ42+Q8WW43+P49768+Q92542+P49810); experiment: Inhibition of human gamma-secretase in HEK-APPswe cells assessed as amyloid beta37 production at 10 nM by electrochemiluminescence assay; format: cell-based
[10] = target: T1, Gamma-secretase (Homo sapiens); experiment: Inhibition of human gamma-secretase in HEK-APPswe cells assessed as amyloid beta40 production at 10 nM by electrochemiluminescence assay; format: cell-based
[11] = target: T1, Gamma-secretase (Homo sapiens); experiment: Inhibition of human gamma-secretase in HEK-APPswe cells assessed as amyloid beta42 production at 10 nM by electrochemiluminescence assay; format: cell-based
[12] = target: T1, Gamma-secretase (Homo sapiens); experiment: Inhibition of human gamma-secretase in HEK-APPswe cells assessed as notch processing at 5 uM by electrochemiluminescence assay; format: cell-based
[13] = target: T1, Gamma-secretase (Homo sapiens); experiment: Inhibition of human gamma-secretase in HEK-APPswe cells assessed as amyloid beta38 production at 10 nM by electrochemiluminescence assay; format: cell-based
[14] = target: T1, Gamma-secretase (Homo sapiens); experiment: Inhibition of human gamma-secretase in HEK-APPswe cells assessed as amyloid beta39 production at 10 nM by electrochemiluminescence assay; format: cell-based
[15] = Half life in C57BL/6 mouse at 3 umol/kg, iv; format: ADME, organism-based; conditions: in vivo
[16] = tested on: Mus musculus; experiment: Dose normalized AUC in C57BL/6 mouse at 3 umol/kg, iv; format: ADME, organism-based; conditions: in vivo
[17] = Clearance in C57BL/6 mouse at 3 umol/kg, iv; format: ADME, organism-based; conditions: in vivo
[18] = Volume of distribution at steady state in C57BL/6 mouse at 3 umol/kg, iv; format: ADME, organism-based; conditions: in vivo, read-out: Vdss
[19] = Cmax in C57BL/6 mouse at 10 umol/kg, po; format: ADME, organism-based; design: dose 10 umol/kg, route oral; conditions: in vivo
[20] = tested on: Mus musculus; experiment: Dose normalized AUC in C57BL/6 mouse at 10 umol/kg, po; format: ADME, organism-based; conditions: in vivo
[21] = Half life in C57BL/6 mouse at 10 umol/kg, po; format: ADME, organism-based; conditions: in vivo
[22] = Oral bioavailability in C57BL/6 mouse at 10 umol/kg; format: ADME, organism-based; conditions: in vivo
[23] = Tmax in C57BL/6 mouse at 10 umol/kg, po; format: ADME, organism-based; conditions: in vivo

Structure (SMILES) | solubility ([1]; read-out: solubility) | pIC50 [2] | IC50 [3] | CLH [4] | IC50 [5] | Kp [6] | other results
COc1cc(Nc2nc3n(n2)CCC(=O)N3Cc2ccccc2C)ccc1-c1cnc(C)nc1 | < 1 µM | 7.2 | 11 µM | 94 µL/min | – | – | –
COc1cc(Nc2nc3n(n2)C(C)(C)CC(=O)N3Cc2ccc(F)cc2)ccc1-n1cnc(C)c1 | 2 µM (≈ 0.951 µg/mL) | 7.9 | 5.6 µM | 50 µL/min | 0.0316 µM | 0.23 | –
COc1cc(Nc2nc3n(n2)CCC(=O)N3c2ccccc2)ccc1-n1cnc(C)c1 | 2 µM (≈ 0.831 µg/mL) | 7.4 | 33 µM | 36 µL/min | 0.251 µM | – | –
COc1cc(Nc2nc3n(n2)CCC(=O)N3Cc2ccccc2)ccc1-n1cnc(C)c1 | < 1 µM | 7.9 | 5.7 µM | 30 µL/min | 0.0794 µM | 0.24 | Papp A→B [7]: 36 ×10⁻⁶ cm/s; Papp B→A [8]: 12 ×10⁻⁶ cm/s
COc1cc(Nc2nc3n(n2)CCC(O)N3Cc2ccccc2)ccc1-n1cnc(C)c1 (stereo not given) | 110 µM (≈ 47.5 µg/mL) | 7.8 | – | 37 µL/min | 0.0794 µM | 0.01 | permeability [7]: 12 ×10⁻⁶ cm/s; permeability [8]: 34 ×10⁻⁶ cm/s
COc1cc(Nc2nc3n(n2)CCC(=O)N3Cc2ccccc2)ccc1-n1cnc(C)n1 | 8 µM (≈ 3.44 µg/mL) | 7 | 17 µM | 16 µL/min | 0.794 µM | – | –
COc1cc(Nc2nc3n(n2)CCC(=O)N3Cc2ccccc2C)ccc1-c1ccc(C)nn1 | < 1 µM | – | 33 µM | 66 µL/min | – | – | –
COc1cc(Nc2nc3n(n2)C(C2CC2)CCN3CC(C)(C)O)ccc1-n1cnc(C)c1 (stereo in doubt; 42B) | 42 µM (≈ 18.4 µg/mL) | – | 33 µM | 21 µL/min | – | – | pIC50 [5]: 6.9
COc1cc(Nc2nc3n(n2)CCCC3c2ccccc2)ccc1-n1cnc(C)c1 (stereo not given) | – | 7.6 | – | – | 0.0501 µM | 0.12 | Papp A→B [7]: 36 ×10⁻⁶ cm/s; Papp B→A [8]: 13 ×10⁻⁶ cm/s
COc1cc(Nc2nc3n(n2)C(C2CC2)CCN3CC(C)(C)O)ccc1-n1cnc(C)c1 (stereo in doubt; 42A) [listing 1 of 2 here] | – | – | – | – | – | – | inhibition [9]: Active; inhibition [10]: Active; inhibition [11]: Active; Activity [12]: inactive; inhibition [13]: Active; inhibition [14]: Active
COc1cc(Nc2nc3n(n2)CCC(=O)N3Cc2ccccc2C)ccc1-c1noc(C)n1 | 50 µM (≈ 22.3 µg/mL) | 4.8 | 33 µM | 39 µL/min | – | 0.81 | Papp A→B [7]: 38 ×10⁻⁶ cm/s; Papp B→A [8]: 12 ×10⁻⁶ cm/s
COc1cc(Nc2nc3n(n2)CCC(=O)N3Cc2ccccc2C(F)(F)F)ccc1-n1cnc(C)n1 | – | 7.3 | 33 µM | 19 µL/min | – | 0.68 | permeability [7]: 45 ×10⁻⁶ cm/s; permeability [8]: 18 ×10⁻⁶ cm/s
COc1cc(Nc2nc3n(n2)C(C2CC2)CC(=O)N3Cc2cc(F)ccc2F)ccc1-n1cnc(C)c1 (stereo not given) | < 1 µM | – | 33 µM | 88 µL/min | 0.0158 µM | 0.11 | –
COc1cc(Nc2nc3n(n2)CCCN3Cc2ccccc2)ccc1-n1cnc(C)c1 | 49 µM (≈ 20.4 µg/mL) | 7.7 | 5 µM | 82 µL/min | 0.1 µM | – | –
COc1cc(Nc2nc3n(n2)C(C2CC2)CCN3CC(C)(C)O)ccc1-n1cnc(C)c1 (stereo in doubt; 42A) [listing 2 of 2 here] | – | – | – | 37 µL/min | – | – | solubility [1]: 63 µM (≈ 27.6 µg/mL); half-life [15]: 54 min; AUC/dose [16]: 0.67 kg·h/L; clearance [17]: 25 mL/min/kg; Vd [18]: 1.4 L/kg; pIC50 [5]: 7.5; Cmax [19]: 3.8 µM; AUC/dose [20]: 0.61 kg·h/L; half-life [21]: 60 min; bioavailability [22]: 91%; Tmax [23]: 30 min
COc1cc(Nc2nc3n(n2)CCC(=O)N3Cc2ccccc2C)ccc1-c1ccnnc1 | < 1 µM | 7.5 | 33 µM | 56 µL/min | 0.0794 µM | 0.11 | Papp A→B [7]: 18 ×10⁻⁶ cm/s; Papp B→A [8]: 22 ×10⁻⁶ cm/s
COc1cc(Nc2nc3n(n2)C2(CC2)CC(=O)N3Cc2ccc(F)cc2)ccc1-n1cnc(C)c1 | < 1 µM | 7.9 | – | 29 µL/min | 0.0251 µM | – | –
COc1cc(Nc2nc3n(n2)CCCC3c2ccc(F)cc2)ccc1-c1cnnc(C)c1 (stereo not given) | – | 7.7 | – | – | 0.1 µM | – | –
COc1cc(Nc2nc3n(n2)CC(C)C(=O)N3Cc2ccccc2)ccc1-n1cnc(C)c1 (stereo not given) | 2 µM (≈ 0.887 µg/mL) | – | 5.6 µM | 84 µL/min | 0.0501 µM | – | –
COc1cc(Nc2nc3n(n2)CC(O)CN3Cc2ccccc2)ccc1-n1cnc(C)c1 (stereo not given) | 290 µM (≈ 125 µg/mL) | – | 28 µM | 19 µL/min | 0.1 µM | – | –
